System: tobacco-smoke-enhanced cough response to 0.3 M citric acid
Experiment: Citric acid-induced cough and Penh in tobacco smoke-exposed conscious guinea-pigs (plethysmograph)
Type: in vivo, guinea-pig
Settings: 1 hour prior to citric acid challenge, mean±s.e. mean; for percentage inhibition of tobacco-smoke-enhanced cough: vs vehicle
Method: Male Dunkin-Hartley guinea-pigs (350-550 g) are exposed to either air or tobacco smoke generated by four research cigarettes, (2R4F; Kentucky, USA) for a 3 second puff every 30 sec, for 2 days. At 24 hours after the last exposure conscious, unrestrained animals are placed in a plethysmograph chamber (Buxco, USA) and challenged with an aerosol of 0.3 M citric acid in 0.9% saline for 10 minutes. Cough and Penh AUC (measure of bronchoconstriction) are recorded during the 10 minute exposure and for a further 10 minutes after exposure using the method described in El-Hashim A. et al. Pulmonary Pharmacology & Therapeutics 17(1) (2004) pages 11-18.
To evaluate the effects of 2-(2-Hydroxy-ethylcarbamoyloxymethyl)-5,7-dimethyl-3-(2-methylsulfamoyl-phenyl)-4-oxo-3,4-dihydro-quinazoline-6-carboxylic acid ethyl ester on the enhanced cough response, animals are dosed subcutaneously with the compound (0.3-10 mg/kg, n=3-10) or vehicle (3:1 PEG200:saline, n=10) at 1 hour prior to citric acid challenge. The percentage inhibition of the cough response following compound administration compared with vehicle administration in tobacco smoke-exposed animals is determined. Data are expressed as mean±s.e. mean and significance is defined as p<0.05 (ANOVA & Dunnett's multiple comparison test).

[1] = 3 mg/kg subcutaneously, significant

SMILES: CCOC(=O)c1c(C)cc2nc(COC(=O)NCCO)n(-c3ccccc3S(=O)(=O)NC)c(=O)c2c1C [2-(2-Hydroxy-ethylcarbamoyloxy-methyl)-5,7-dimethyl-3-(2-methylsulfamoyl-phenyl)-4-oxo-3,4-dihydro-quinazoline-6-carboxylic acid ethyl ester]
- inhibition of baseline Penh value (measure of bronchoconstriction) (0.3 mg/kg subcutaneously): 48±17%
- percentage inhibition of tobacco-smoke-enhanced cough (0.3 mg/kg subcutaneously): 18±14%
- inhibition of baseline Penh value (measure of bronchoconstriction) (1 mg/kg subcutaneously): 55±19%
- percentage inhibition of tobacco-smoke-enhanced cough (1 mg/kg subcutaneously, significant): 49±17%
- inhibition of baseline Penh value (measure of bronchoconstriction) [1]: 77±10%
- percentage inhibition of tobacco-smoke-enhanced cough [1]: 80±13%
- inhibition of baseline Penh value (measure of bronchoconstriction) (10 mg/kg subcutaneously): 86±2%
- percentage inhibition of tobacco-smoke-enhanced cough (10 mg/kg subcutaneously, significant): 100±0%

From patent US20080004296A1, “Organic Compounds” (priority 2004, published 2008)
